“Also recorded” adds a separate entry of the source. Where two headings read alike, the source gives them in different places. Blank lines part the entries; values can stand above or below the compound they belong to.
How the values were obtained:
Aβ1–40 aggregates = target: T1, Aβ1–40 aggregates (Homo sapiens, UniProt P05067); assay: Competition binding assay on Aβ1–40 aggregates using [125I]TZDM as radio-ligand; settings: Aβ1–40 aggregates against [125I]TZDM; triplicate, mean ± SD
T1 construct: β-amyloid(1–40) were purchased from AnaSpec; purchased AnaSpec (San Jose, CA, USA)
T1 sequence (P05067 672-711 limits assumed): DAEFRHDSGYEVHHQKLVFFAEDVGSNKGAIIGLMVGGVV
Protocol: The lyophilized white powder of β-amyloid(1–40) were purchased from AnaSpec (San Jose, CA, USA). After reconstituted by adding basic buffer (1% NH4OH. 60–70 μL) to β-amyloid (1–40) (1 mg) aggregation of Aβ1–40 was carried out by gently dissolving Aβ1–40 (0.25 mg/mL) in a PBS buffer (pH 7.4). The solution was incubated at 37 °C for 72 h with gentle and constant shaking. Binding studies were carried out according to the procedure described previously with some modifications using [^125I]TZDM as the radiolabeled standard. […] The mixture was incubated at 37 °C for 2 h. […] Filters containing the bound ^125I ligand were counted in a γ-counter (WALLAC Wizard 1470, PerkinElmer Life Sciences, Waltham, MA, USA) with 75% counting efﬁciency. The IC50 values were determined using GraphPad Prism 5.0, and those for the inhibition constant (Ki) were calculated using the Cheng Prusoff equation: Ki = IC50/(1 + [L]/Kd).

Aβ plaques = Aβ plaques (Homo sapiens, UniProt P05067); assay: In vitro fluorescent staining of amyloid plaques in brain sections from transgenic mouse; type: binding, transgenic model mouse (APP/PS1); settings: brain sections 8 µm, APP/PS1, 12 months, male; 1 µM
Sequence of Aβ plaques (P05067 672-711 limits assumed): as above
Protocol: Parafﬁn-embedded brain sections of transgenic model mouse (8 µm, APP/PS1, 12 months, male) were used for the in vitro fluorescent staining of amyloid plaques. The brain sections were deparafﬁnized with xylene, ethanol and distilled water. After immersion in PBS (0.02 M, pH 7.4) for 30 min, the brain sections were incubated with 20% ethanol solution (1 µM) of compound 8 for 10 min. The localization of plaques was confirmed by staining with thioﬂavin-S on the adjacent sections. Finally, the sections were washed with 40% ethanol and PBS (0.02 M, pH 7.4). Fluorescent observation was performed by a Stereo Discovery V12 instrument (Zeiss, Oberkochen, Germany) equipped with a LP 505 filter set (excitation, 405 nm).

[1] = set-up: method as in PMID 12519062; settings: normal mice, cited from earlier work
[2] = Partition coefficient determination (n-octanol/PBS); type: physicochemical; settings: n-octanol / PBS 0.02 M, pH 7.4
Protocol: The determination of partition coefﬁcients of [^125I]8 and [^125I]17 was performed according to the procedure previously reported with some modifications. Ligand [^125I]8 or [^125I]17 (~5 μCi) was mixed with 3 mL each of n-octanol and PBS (0.02 M, pH 7.4) in a test tube. The test tube was vortexed for 5 min at room temperature, followed by centrifugation for 10 min at 3,000 rpm. Two weighed samples from the n-octanol (50 µL) and buffer layers (400 µL) were counted in a γ-counter. The partition coefﬁcient was expressed as the logarithm of the ratio of the counts per gram from n-octanol versus that of PBS. Samples from the n-octanol layer were repartitioned until consistent partition coefﬁcient values were obtained. The measurements were done in triplicate and repeated three times.

[3] = In vivo biodistribution in normal mice; set-up: species or system KunMing normal mice; settings: iv injection
Protocol: In vivo biodistribution studies were performed in KunMing normal mice (female, average weight 18–22 g) and in accordance with the national laws related to the care and experiments on laboratory animal. A saline solution (100 µL) containing [^125I]8 or [^125I]17 (1 µCi) was injected directly into the tail vein of mice. The mice (n = 5 for each time point) were sacriﬁced at designated time points post-injection. The organs of interest were removed and weighed, and the radioactivity was counted with an automatic γ-counter (WALLAC Wizard 1470).

melting point: 162 to 163 °C | Ki (Aβ1–40 aggregates): 25.1 ± 2.1 nM
Compound: C(=C\c1ccc2[nH]ccc2c1)/c1ccccc1 [Compound 4, (E)-5-Styryl-1H-indole]

Ki (Aβ1–40 aggregates): 89.3 ± 2.6 nM
Compound: Fc1ccc(/C=C/c2ccc3[nH]ccc3c2)cc1 [Compound 5, (E)-5-(4-Fluorostyryl)-1H-indole]

Ki (Aβ1–40 aggregates): 51.5 ± 1 nM
Compound: Clc1ccc(/C=C/c2ccc3[nH]ccc3c2)cc1 [Compound 6, (E)-5-(4-Chlorostyryl)-1H-indole]

melting point: 215 to 216 °C | Ki (Aβ1–40 aggregates): 16.3 ± 1.7 nM
Compound: Brc1ccc(/C=C/c2ccc3[nH]ccc3c2)cc1 [Compound 7, (E)-5-(4-Bromostyryl)-1H-indole]

melting point: 211 to 212 °C | Ki (Aβ1–40 aggregates): 4.1 ± 0.2 nM
Compound: Ic1ccc(/C=C/c2ccc3[nH]ccc3c2)cc1 [Compound 8, (E)-5-(4-Iodostyryl)-1H-indole]
Fluorescent staining of Aβ plaques (Aβ plaques): specific binding to Aβplaques; also recorded: clearly stained Aβ plaques

Ki (Aβ1–40 aggregates): 32.4 ± 1.9 nM
Compound: COc1ccc(/C=C/c2ccc3[nH]ccc3c2)cc1 [Compound 10, (E)-5-(4-Methoxystyryl)-1H-indole]

Ki (Aβ1–40 aggregates): 270.4 ± 1.5 nM
Compound: Fc1ccc(/C=C/c2ccc3ncccc3c2)cc1 [Compound 14, (E)-6-(4-Fluorostyryl)quinoline]

Ki (Aβ1–40 aggregates): 45 ± 1.3 nM
Compound: Clc1ccc(/C=C/c2ccc3ncccc3c2)cc1 [Compound 15, (E)-6-(4-Chlorostyryl)quinoline]

Ki (Aβ1–40 aggregates): 23.5 ± 1.3 nM
Compound: Brc1ccc(/C=C/c2ccc3ncccc3c2)cc1 [Compound 16, (E)-6-(4-Bromostyryl)quinoline]

melting point: 173 to 174 °C | Ki (Aβ1–40 aggregates): 8.6 ± 1.2 nM
Compound: Ic1ccc(/C=C/c2ccc3ncccc3c2)cc1 [Compound 17, (E)-6-(4-Iodostyryl)quinoline]

Ki (Aβ1–40 aggregates): 288.4 ± 1.3 nM
Compound: Cc1ccc(/C=C/c2ccc3ncccc3c2)cc1 [Compound 18, (E)-6-(4-Methylstyryl)quinoline]

Compound: CN(C)c1ccc(-c2cn3cc([123I])ccc3n2)cc1 [[^123I]IMPY]
brain uptake ([1]; 2 min postinjection ref 16): 2.88 % ID/organ | brain uptake ([1]; 60 min postinjection ref 16): 0.21 % ID/organ | brain2min/brain60min ratio ([1]; from literature values ref 16): 13.7

logD [2]: 2.73 | Biodistribution Blood ([3]; 2 min): 11.39 ± 1.56 % ID/g | Biodistribution Brain ([3]; 2 min): 2.05 ± 0.25 % ID/g | Biodistribution Heart ([3]; 2 min): 7.70 ± 0.86 % ID/g | Biodistribution Kidney ([3]; 2 min): 15.01 ± 1.56 % ID/g | Biodistribution Liver ([3]; 2 min): 22.45 ± 1.79 % ID/g | Biodistribution Lung ([3]; 2 min): 13.56 ± 1.71 % ID/g | Biodistribution Muscle ([3]; 2 min): 2.78 ± 0.42 % ID/g | Biodistribution Spleen ([3]; 2 min): 5.88 ± 0.30 % ID/g | Biodistribution Stomach ([3]; 2 min): 4.05 ± 0.09 % ID/organ | Biodistribution Blood ([3]; 15 min): 6.31 ± 0.51 % ID/g | Biodistribution Brain ([3]; 15 min): 1.18 ± 0.17 % ID/g | Biodistribution Heart ([3]; 15 min): 3.80 ± 0.12 % ID/g | Biodistribution Kidney ([3]; 15 min): 7.47 ± 1.01 % ID/g | Biodistribution Liver ([3]; 15 min): 9.95 ± 0.18 % ID/g | Biodistribution Lung ([3]; 15 min): 6.42 ± 0.47 % ID/g | Biodistribution Muscle ([3]; 15 min): 1.68 ± 0.20 % ID/g | Biodistribution Spleen ([3]; 15 min): 5.91 ± 0.58 % ID/g | Biodistribution Stomach ([3]; 15 min): 15.84 ± 0.78 % ID/organ | Biodistribution Blood ([3]; 30 min): 5.80 ± 0.37 % ID/g | Biodistribution Brain ([3]; 30 min): 0.93 ± 0.13 % ID/g | Biodistribution Heart ([3]; 30 min): 3.21 ± 0.11 % ID/g | Biodistribution Kidney ([3]; 30 min): 6.57 ± 0.50 % ID/g | Biodistribution Liver ([3]; 30 min): 9.12 ± 0.53 % ID/g | Biodistribution Lung ([3]; 30 min): 5.64 ± 0.41 % ID/g | Biodistribution Muscle ([3]; 30 min): 2.30 ± 0.32 % ID/g | Biodistribution Spleen ([3]; 30 min): 4.66 ± 0.52 % ID/g | Biodistribution Stomach ([3]; 30 min): 8.11 ± 1.21 % ID/organ | Biodistribution Blood ([3]; 60 min): 3.86 ± 0.74 % ID/g | Biodistribution Brain ([3]; 60 min): 0.55 ± 0.11 % ID/g | Biodistribution Heart ([3]; 60 min): 2.55 ± 0.21 % ID/g | Biodistribution Kidney ([3]; 60 min): 4.72 ± 0.69 % ID/g | Biodistribution Liver ([3]; 60 min): 6.97 ± 0.28 % ID/g | Biodistribution Lung ([3]; 60 min): 4.55 ± 0.49 % ID/g | Biodistribution Muscle ([3]; 60 min): 1.40 ± 0.34 % ID/g | Biodistribution Spleen ([3]; 60 min): 4.71 ± 0.97 % ID/g | Biodistribution Stomach ([3]; 60 min): 6.75 ± 0.43 % ID/organ | Biodistribution Blood ([3]; 120 min): 1.97 ± 0.35 % ID/g | Biodistribution Brain ([3]; 120 min): 0.26 ± 0.03 % ID/g | Biodistribution Heart ([3]; 120 min): 1.33 ± 0.06 % ID/g | Biodistribution Kidney ([3]; 120 min): 2.20 ± 0.34 % ID/g | Biodistribution Liver ([3]; 120 min): 3.93 ± 0.46 % ID/g | Biodistribution Lung ([3]; 120 min): 2.01 ± 0.18 % ID/g | Biodistribution Muscle ([3]; 120 min): 0.72 ± 0.21 % ID/g | Biodistribution Spleen ([3]; 120 min): 2.25 ± 0.36 % ID/g | Biodistribution Stomach ([3]; 120 min): 11.12 ± 2.48 % ID/organ | Biodistribution Blood ([3]; 240 min): 1.38 ± 0.24 % ID/g | Biodistribution Brain ([3]; 240 min): 0.14 ± 0.02 % ID/g | Biodistribution Heart ([3]; 240 min): 0.80 ± 0.19 % ID/g | Biodistribution Kidney ([3]; 240 min): 1.64 ± 0.23 % ID/g | Biodistribution Liver ([3]; 240 min): 2.96 ± 0.28 % ID/g | Biodistribution Lung ([3]; 240 min): 1.43 ± 0.28 % ID/g | Biodistribution Muscle ([3]; 240 min): 0.61 ± 0.08 % ID/g | Biodistribution Spleen ([3]; 240 min): 1.59 ± 0.17 % ID/g | Biodistribution Stomach ([3]; 240 min): 7.03 ± 1.51 % ID/organ
Compound: [125I]c1ccc(/C=C/c2ccc3ncccc3c2)cc1 [[^125I]17]

Compound: (E)-5-(4-Methoxystyryl)-1H-indole [Compound 9]
Ki (Aβ1–40 aggregates): 15.8 ± 1.5 nM

Reference: article PMC6268995, “(E)-5-Styryl-1H-indole and (E)-6-Styrylquinoline Derivatives Serve as Probes for β-Amyloid Plaques” (Molecules, 2012)
